From ChEMBL document CHEMBL5096158, “HIV latency reversal agents: A potential path for functional cure?” (Eur J Med Chem, 2021)

Key:
[1] = test system: Human immunodeficiency virus 1; assay: Reactivation of HIV-1 latency infected in GFP-fused human J-Lat 9.2 cells assessed as increase in GFP expression at 1 uM incubated for 24 hrs by flow cytometry; type: functional
[2] = test system: Human immunodeficiency virus 1; assay: Reversal of HIV-1 latency in human ACH-2 cells assessed as increase in GFP positive cells incubated for 24 hrs by flow cytometry; type: functional, organism-based, ACH-2 cell line; conditions: Human immunodeficiency virus 1, ACH-2, 24 h
[3] = Cytotoxicity against human U1 cells assessed as reduction in cell viability incubated for 48 hrs by WST-8 assay; type: toxicity, cell-based
[4] = Cytotoxicity against human PBMC cells assessed as reduction in cell viability incubated for 48 hrs by WST-8 assay; type: toxicity, cell-based
[5] = Cytotoxicity against human ACH-2 cells assessed as reduction in cell viability incubated for 48 hrs by WST-8 assay; type: toxicity, cell-based
[6] = target: Protein kinase C gamma type (Homo sapiens, UniProt P05129); assay: Displacement of 3H-PDBu from recombinant human PKCgamma incubated for 25 mins by scintillation counter analysis
[7] = Inhibition of HIV-1 latency infected in human U1 cells assessed as increase in p24 expression level incubated for 48 hrs by ELISA; type: functional, cell-based; conditions: Human immunodeficiency virus 1, U1, 48 h
[8] = test system: Human immunodeficiency virus 1; assay: Reactivation of HIV-1 latency in human J-Lat Tat-GFP Clone A1 cells assessed as increase in GFP expression at 23 pM incubated for 24 hrs by flow cytometry; type: functional
[9] = test system: Human immunodeficiency virus 1; assay: Reactivation of HIV-1 latency in human J-Lat Tat-GFP Clone A1 cells assessed as increase in GFP expression at 375 pM incubated for 24 hrs by flow cytometry; type: functional
[10] = test system: Human immunodeficiency virus 1; assay: Reactivation of HIV-1 latency in human CD4+ve Th cells assessed as increase in GFP expression at 3 nM incubated for 24 hrs by flow cytometry; type: functional
[11] = test system: Human immunodeficiency virus 1; assay: Reactivation of HIV-1 latency in human U1 cells assessed as fold increase in HIV transcription by measuring GFP expression at 6 nM incubated for 24 hrs by flow cytometry; type: functional
[12] = test system: Human immunodeficiency virus 1; assay: Reactivation of HIV-1 latency in human U1 cells assessed as fold increase in HIV transcription by measuring GFP expression at 6 nM incubated for 24 hrs in presence of JQ1 by flow cytometry; type: functional
[13] = test system: Human immunodeficiency virus 1; assay: Reversal of HIV-1 latency in human PBMC from HIV infected donors assessed as increase in p24Gag viral protein level incubated for 24 hrs by ELISA; type: functional
[14] = test system: Human immunodeficiency virus 1; assay: Reactivation of HIV-1 latency infected in GFP-fused human J-Lat 10.6 cells assessed as increase in GFP expression incubated for 48 hrs by flow cytometry; type: functional, organism-based; conditions: Human immunodeficiency virus 1, J-Lat 10.6, 48 h
[15] = test system: Human immunodeficiency virus 1; assay: Reversal of HIV-1 latency in human J-Lat 9.2 cells assessed as increase in GFP expression incubated for 24 hrs by flow cytometry; type: functional, organism-based; conditions: Human immunodeficiency virus 1, J-Lat 9.2, 24 h
[16] = test system: Human immunodeficiency virus 1; assay: Reversal of HIV-1 latency in human J-Lat 10.6 cells assessed as increase in GFP expression incubated for 24 hrs by flow cytometry; type: functional, organism-based; conditions: Human immunodeficiency virus 1, J-Lat 10.6, 24 h
[17] = test system: Human immunodeficiency virus 1; assay: Reactivation of HIV-1 latency infected in GFP-fused human J-Lat C11 cells assessed as increase in GFP expression incubated for 48 hrs by flow cytometry; type: functional, organism-based; conditions: Human immunodeficiency virus 1, J-Lat C11, 48 h
[18] = test system: Human immunodeficiency virus 1; assay: Reversal of HIV-1 latency in human J-Lat 8.4 cells assessed as increase in GFP expression incubated for 24 hrs by flow cytometry; type: functional, organism-based; conditions: Human immunodeficiency virus 1, J-Lat 8.4, 24 h

Question: For `CCCc1nc2c(N)nc3ccccc3c2s1`, which Activity [1] is on record?
Answer: Its Activity is 18%.

Question: Which EC50 [2] does the source give for `CCCCCCCCCCc1ccc2c(c1)N(C)[C@@H](C(C)C)C(=O)NC(CO)C2` (some centres undefined) here?
Answer: The EC50 was 25 nM.

Question: And the CC50 at 48 h [3]?
Answer: The CC50 at 48 h was 61200 nM.

Question: And the CC50 at 48 h [4]?
Answer: Its CC50 at 48 h is 39900 nM.

Question: What about the CC50 at 48 h [5] of the same compound?
Answer: Its CC50 at 48 h is 21100 nM.

Question: With `CC1=C[C@H]2[C@@]3(O)[C@H](C)C[C@]4(OC(=O)Cc5cccc6ccccc56)[C@H]([C@@H]3C=C(CO)C[C@]2(O)C1=O)C4(C)C` as the compound, how does the Ki [6] read?
Answer: The Ki was 0.65 nM.

Question: What about the EC50 [7] of the same compound?
Answer: Its EC50 is 10.2 nM.

Question: Which Activity [8] does the source give for `CCCCCC(=O)O[C@H]1C(C)=C[C@]23C(=O)[C@H](C=C(CO)[C@@H](O)[C@]12O)C1C(C[C@H]3C)C1(C)C` (some centres undefined) here?
Answer: Its Activity is 20%.

Question: What about the Activity [9] of the same compound?
Answer: Its Activity is 50%.

Question: What about the Activity [10] of the same compound?
Answer: Its Activity is 100%.

Question: With `C/C=C(\C)C(=O)O[C@H]1C(C)=C[C@]23C(=O)[C@H](C=C(CO)[C@@H](O)[C@]12O)C1C(C[C@H]3C)C1(C)C` (some centres undefined) as the compound, how does the “fold change (FC)” value [11] read?
Answer: Its value is 25.

Question: What about the “fold change (FC)” value [12] of the same compound?
Answer: The value was 250.

Question: For `CO[C@@H](CC[C@H](C)[C@H]1O[C@@]23C[C@H](OC(=O)C[C@H]([C@@H](C)O)OC(=O)C[C@](O)(O2)[C@H](C)CC3(C)C)[C@@H]1C)c1cc(O)ccc1Br` [APLYSIATOXIN], which Activity [13] is on record?
Answer: The Activity was 56%.

Question: Which EC50 [14] does the source give for `CC(=O)O[C@@]12C[C@@H](C)[C@@]3(O)[C@@H](C=C(CO)C[C@]4(O)C(=O)C(C)=C[C@@H]34)[C@@H]1C2(C)C` [PROSTRATIN] here?
Answer: The EC50 was 865 nM.

Question: And the EC50 [15]?
Answer: The EC50 was 45 nM.

Question: What about the EC50 [7] of the same compound?
Answer: The EC50 was over 1000 nM.

Question: And the EC50 [16]?
Answer: The EC50 was 3.3 nM.

Question: What about the EC50 [17] of the same compound?
Answer: Its EC50 is 768 nM.

Question: And the EC50 [18]?
Answer: The EC50 was 11 nM.
